In ChEMBL document CHEMBL1138755, “A peptide nucleic acid-neamine conjugate that targets and cleaves HIV-1 TAR RNA inhibits viral replication” (J Med Chem, 2004):

Test system: Human immunodeficiency virus 1
Experiment: Ability of the conjugate to block HIV-1 production when supplemented in a culture medium; NI= No inhibition of the HIV-1 replication even at concentration >5 uM
Type: functional, organism-based

**Q.** How did the inhibition turn out when `NC[C@H]1O[C@H](O[C@H]2[C@H](O)[C@@H](O)[C@H](N)C[C@@H]2N)[C@H](N)[C@@H](O)[C@@H]1O` was run?
**A.** No inhibition
